Columns and labels:
mouse locomotor activity = assay: Reduction of mouse locomotor activity (hypolocomotion); assay type: in vivo, mouse (male, CF-1); conditions: 20 min, sc, horizontal activity counts collected 10 to 20 minutes after dosing
Method: The antipsychotic activity of the compounds of the invention was further established by a determination of the compounds' ability to reduce mouse locomotor activity according to the method of Martin and Bendensky, J. Pharmacol. Exp. Therap. 229: 706-711, 1984, in which mice (male, CF-1, Charles River, 20-30 g) were injected with vehicle or various doses of each drug and locomotor activity was measured for 30 minutes using automated infrared activity monitors (Omnitech-8×8 inch open field) located in a darkened room. ED50 's were calculated from the horizontal activity counts collected from 10 to 20 minutes after dosing using a nonlinear regression analysis with inverse prediction.

dopamine D2 receptor = molecular target: T1, dopamine D2 receptor (Rattus norvegicus, UniProt P61169); assay: Affinity for the dopamine D2 receptor (3H-quinpirole, rat striatal brain tissue homogenate); assay type: binding; conditions: homogenized rat striatal brain tissue
T1 construct: homogenized rat striatal brain tissue; from tissue; host or cells: rat striatum (homogenate)
T1 sequence (P61169 whole entry): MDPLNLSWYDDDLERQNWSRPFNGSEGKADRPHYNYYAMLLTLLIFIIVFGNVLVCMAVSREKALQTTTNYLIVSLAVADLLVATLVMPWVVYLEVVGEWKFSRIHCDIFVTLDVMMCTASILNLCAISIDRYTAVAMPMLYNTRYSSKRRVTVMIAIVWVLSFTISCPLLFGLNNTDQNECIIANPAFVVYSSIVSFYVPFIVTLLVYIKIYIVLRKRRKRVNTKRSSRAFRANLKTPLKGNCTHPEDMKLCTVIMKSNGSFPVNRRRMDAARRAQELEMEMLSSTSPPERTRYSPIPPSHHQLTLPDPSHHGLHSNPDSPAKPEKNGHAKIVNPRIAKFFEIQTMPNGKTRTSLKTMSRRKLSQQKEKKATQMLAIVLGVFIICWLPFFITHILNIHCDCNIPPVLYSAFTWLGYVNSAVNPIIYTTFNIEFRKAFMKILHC
Method: Affinity for the dopamine D2 receptor was established by a modification of the standard experimental test procedure of Seemen and Schaus, European Journal of Pharmacology 203: 105-109, 1991, wherein homogenized rat striatal brain tissue is incubated with ^3 H-quinpirole and various concentrations of test compound, filtered and washed and counted in a Betaplate scintillation counter.

dopamine autoreceptor = assay: GBL model: effect on synthesis of dopamine (inhibition of dopa accumulation); assay type: in vivo, rat (male, Sprague-Dawley); conditions: rat, 10 mg/kg, sc; GBL 750 mg/kg ip, NSD-1015 100 mg/kg ip
Method: The effect of the compounds of the invention on the synthesis of dopamine was established by the method of Walters and Roth, Naunyn-Schmiedeberg's Arch. Pharmacol. 296:5-14, 1976, in which rats (male, Sprague-Dawley, Charles River, 200-350 g) were administered vehicle or test drug ten minutes prior to the administration of gamma butyrolactone (GBL; 750 mg/kg, ip to inhibit dopaminergic impulse flow) and 20 minutes prior to NSD-1015 (100 mg/kg, ip to prevent the conversion of dopa to dopamine). Thirty minutes after NSD-1015 all rats were decapitated and the nucleus accumbens and the striatum were removed for analysis. Following perchloric acid extraction of the tissue, the extracts were placed over alumina columns to collect and concentrate dopa and other catechols. This eluate was then subjected to HPLC analysis using electrochemical detection to quantify the levels of dopa present. Dopamine autoreceptor agonists, under the conditions used above, inhibit dopa accumulation. […]

Row | SMILES | ED50 (mouse locomotor activity) | IC50 (dopamine D2 receptor) | inhibition of dopa accumulation (dopamine autoreceptor)
1 | O=C1Cc2c(ccc3c2O[C@@H](CNCc2ccccc2)CO3)N1 [Example 1] | 0.0031 mg/kg | 0.37 nM | 67.5%
2 | O=C1Cc2c(c(F)cc3c2O[C@@H](CNCCCc2c[nH]c4ccccc24)CO3)N1 [Example 39, 6-Fluoro-2-{[3-(1H-indol-3-yl)-propylamino]-methyl}-2,3,8,9-tetrahydro-7H-1,4-dioxino[2,3-e]indol-8-one] | 0.064 mg/kg | 0.78 nM | –

— US5756532A, “Aminomethyl-2 3 8 9-tetrahydro-7H-1 4-dioxino[2 3-E]-indol-8-ones and derivatives” (American Home Products Corporation, priority 1996, dated 1998)
